Key:
[1] = test system: IL-12 induced Th1 differentiation; assay: IL-12 dependent in vitro T-helper cell (Th1) differentiation assay; format: cell-based; details: 168 h, inhibition of IL-12 induced Th1 differentiation as defined by IFN-γ production upon secondary stimulation with anti-CD3 alone, splenic T cells, anti-CD3 and 5 U/ml IL-12, seven days
Method: This example illustrates the inventive compounds' ability to suppress Th1 differentiation in vitro by blocking IL-12 signaling. Each of compounds [A through Y] were tested in an IL-12 dependent in vitro T-helper cell differentiation assay as described in LeGross et al., J. Exp. Med., 172:921-929 (1990). Recombinant IL-12 was used to induce Th1 differentiation. Splenic T cells were purified utilizing the antibodies RA3-3A1/6.1 (anti-B220), J11d and MAR18.5 (anti-rat kappa chain) to deplete the B cells by magnetic bead separation, as described in Coon et al, J. Immuno., 163:6567-6574 (1989). Splenic T cells were stimulated at 5×10^5/ml with insoluble anti-CD3 alone (145-2C11, Pharmingen, San Diego, Calif.), or anti-CD3 and 5 U/ml IL-12, with and without each inventive compound. After seven days, equal numbers of viable cells were restimulated for 24 hours with anti-CD3 without the inventive compounds, and the supernatants were collected and assayed for IFN-γ production. IFN-γ and IL-4 levels were measured by ELISA test specific for IFN-γ and IL-4.
Th1 differentiation was induced by culturing anti-CD3 stimulated T cells in the presence of exogenous IL-12. […] It was observed that the presence of the tested compounds during T cell activation inhibited Th1 differentiation, which had been enhanced by the addition of exogenous IL-12. The values in the “IC50 μM” column were determined by measuring the inhibition of IL-12 induced Th1 differentiation as defined by IFN-γ production upon secondary stimulation with anti-CD3 alone. None of the compounds affected the viability or recovery of T cells after one week of culture

[2] = test system: IL-4 induced T2 differentiation; assay: T2 differentiation assay (T0 cells stimulated in the presence of IL-4); format: cell-based; details: for IC50: T0 cells stimulated in the presence of IL-4, IL-4 secretion as readout; for IL-4 production of resulting effector cells / activation and proliferation of resulting effector cells: T0 cells stimulated in the presence of IL-4 and compound
Method: (R)-7,8-Dihydro-3-(5-hydroxyhexyl)-1-methyl-1H-imidazo[2,1-f]-purine-2,4(3H,6H)-dione (CT-13430) (see Example 1) and (R)-3-(5-Hydroxyhexyl)-1-methyl-6,7,8,9-tetrahydro-pyrimido[2,1-f]purine-2,4(1H,3H)-dione (CT-13431) (see Example 4) were tested to determine their ability to block the differentiation of T0 cells to T2 effectors as judged by their relative inability to secrete the canonical T2 effector cytokine, IL-4, following treatment with the compounds. In a series of experiments analogous to the T1 differentiation assay of Example 10 (in which T0 cells were induced to become T1 effectors by polyclonal stimulation in the presence of IL-12), the above compounds were effective in a T2 differentiation assay in which T0 cells are stimulated in the presence of IL-4, which affects T2 differentiation.

SMILES | IC50 [1] | IC50 [2] | IL-4 production of resulting effector cells [2] | activation and proliferation of resulting effector cells [2]
C[C@@H](O)CCCCn1c(=O)c2c(nc3n2CCS3)n(C)c1=O [compound 13421, (R)-6,7-Dihydro-3-(5-hydroxyhexyl)-1-methyl-thiazolo[2,3-f]purine-2,4 (1H,3H)-dione] | 33 µM |  |  | 
C[C@@H](O)CCCCn1c(=O)c2c(nc3n2CCN3)n(C)c1=O [compound 13430, (R)-7,8-Dihydro-3-(5-hydroxyhexyl)-1-methyl-1H-imidazo[2,1-f]-purine-2,4(3H,6H)-dione] | 17 µM | 14 µM | deficient in IL-4 production | proliferated normally
C[C@@H](O)CCCCn1c(=O)c2c(nc3n2CCCN3)n(C)c1=O [compound 13431, (R)-3-(5-Hydroxyhexyl)-1-methyl-6,7,8,9-tetrahydro-pyrimido[2,1-f]purine-2,4(1H,3H)-dione] | 11 µM | 13 µM | deficient in IL-4 production | proliferated normally
C[C@@H](O)CCCCn1c(=O)c2c(nc3n2CCNC3)n(C)c1=O [compound 30099, (R)-3-(5-hydroxyhexyl)-1-methyl-6,7,8,9-tetrahydro-pyrazino[2,1-f]purine-2,4(1H,3H)-dione] | 22 µM |  |  | 
C[C@@H](C#N)CCCCn1c(=O)c2c(nc3n2CCCN3)n(C)c1=O [compound 30146, (R)-3-(5-cyanohexyl)-1-methyl-6,7,8,9-tetrahydro-pyrimido[2,1-f]purine-2,4(1H,3H)-dione] | 14 µM |  |  | 
C[C@@H](C#N)CCCCn1c(=O)c2c(nc3n2CCN3)n(C)c1=O [compound 30255, (R)-3-(5-Cyanohexyl)-7,8-dihydro-1-methyl-1H-imidazo[2,1-f]-purine-2,4(3H,6H)-dione] | 16 µM |  |  | 
CC(=O)N1CCn2c1nc1c2c(=O)n(CCCC[C@H](C)O)c(=O)n1C [compound 30256] | 24 µM |  |  | 
CC(=O)N1CCn2c1nc1c2c(=O)n(CCCC[C@@H](C)N)c(=O)n1C [compound 30259] | 15 µM |  |  | 
CC(=O)N1CCn2c1nc1c2c(=O)n(CCCC[C@@H](C)O)c(=O)n1C [compound 30260, (R)-3-(5-Hydroxyhexyl)-1-methyl-6,7-dihydro-2,4-dioxo-8-N-acetyl-1H-imidazo[2,1-f]-purine] | 9 µM |  |  | 
C[C@@H](CCCCn1c(=O)c2c(nc3n2CCCN3C)n(C)c1=O)N(C)C [compound 30262] | 34 µM |  |  | 
C[C@H](N)CCCCn1c(=O)c2c(nc3n2CCCN3)n(C)c1=O [compound 30263] | 90 µM |  |  | 
C[C@@H](CCCCn1c(=O)c2c(nc3n2CCCN3)n(C)c1=O)N(C)C [compound 30264] | 39 µM |  |  | 
C[C@H](CCCCn1c(=O)c2c(nc3n2CCCN3)n(C)c1=O)N(C)C [compound 30267] | 34 µM |  |  | 
C[C@@H](O)CCCCn1c(=O)c2nc3n(c2n(C)c1=O)CCN3 [compound 30268, (R)-3-(5-hydroxyhexyl)-1-methyl-1,6,7,8-tetrahydro-2H-imidazo[1,2-e]-purine-2,4(3H)-dione] | 20 µM |  |  | 
C[C@H](O)CCCCn1c(=O)c2c(nc3n2CCCN3)n(C)c1=O [compound 30269] | 53 µM |  |  | 

Source: US7247630B2, “Uses of tricyclic compounds” (Cell Therapeutics, Inc., priority 2000, dated 2007)
